Assay results: article PMC11539244, “Relative inhibitory activities of newly developed diazabicyclooctanes, boronic acid derivatives, and penicillin-based sulfone β-lactamase inhibitors against broad-spectrum AmpC β-lactamases” (Antimicrobial Agents and Chemotherapy, 2024)
pIC50: −log10 of the molar value. Where two headings read alike, the source gives them in different places.

Columns and labels:
[1] = test system: E. coli ADC-50 (E. coli TOP10 recombinant strain); test: microbe, parasite or virus in culture; type: cell-based, Escherichia coli; settings: Escherichia coli, read-out: MICs
Protocol: (§1) In order to assess the relative inhibitory activities of those BLI against AmpC β-lactamases, the corresponding blaampC genes without the original promoter sequences were amplified by PCR with specific primers, and corresponding amplicons were cloned into plasmid pUCp24, as described previously ([12], [13]). […] Cultures of E. coli TOP10 harboring recombinant plasmids and therefore producing the different AmpC tested were grown overnight at 37°C in Luria-Bertani agar medium containing amoxicillin (AMX) (50 µg/mL). The activity of the following acquired class C β-lactamases could therefore be evaluated, namely, ACC-1 (originally from Hafnia spp.), FOX-5 (from Aeromonas allosaccharophila), CMY-2 and CMY-42 (from Citrobacter spp.), DHA-1 (from Morganella morganii), ACT-7 and ACT-17 (from Enterobacter asburiae), MIR-17 (from Enterobacter roggenkampii), MOX-2 (from Aeromonas caviae), and LAT-1 (from Citrobacter portucalensis) ([5]). […] Altogether, these enzymes were chosen as representatives of clinically relevant class C β-lactamases being sources of intrinsic or acquired resistance to broad-spectrum β-lactams among most of the commonly identified Gram-negative bacteria in clinical practice.
(§2) MICs were determined in triplicate by broth microdilution (BMD) for CAZ and AMX, as well as their combinations with each β-lactamase inhibitor. CAZ, AMX, and CLA were purchased from Sigma-Aldrich (St. Louis, MO, USA). All others inhibitors (TAZ HY-W009168, AVI HY-14879, REL HY-16752, VAB HY-19930, NAC HY-109008, ZID HY-120859, TAN HY-109124, XER HY-136072, DUR HY-117974, EMT HY-103095) were purchased from MedChem Express (Luzern, Switzerland). The concentration of each β-lactamase inhibitor was chosen as the concentration used in the respective BL/BLI combination under development or commercially available, according to EUCAST or CLSI ([18], [19]). […] BMD assays were performed in cation-adjusted Mueller-Hinton (MH) broth (Bio-Rad, Marnes-la-Coquette, France) for all antibiotics or antibiotic combinations listed above, according to the EUCAST guidelines ([20]).

[2] = test system: E. coli MOX-2 (E. coli TOP10 recombinant strain); test: microbe, parasite or virus in culture; type: cell-based; settings: Escherichia coli, read-out: MICs
Protocol: as §1, §2

[3] = test system: E. coli YRC-1 (E. coli TOP10 recombinant strain); test: microbe, parasite or virus in culture; type: cell-based; settings: Escherichia coli, read-out: MICs
Protocol: as §1, §2

[4] = test system: E. coli ACT-17 (E. coli TOP10 recombinant strain); test: microbe, parasite or virus in culture; type: cell-based; settings: Escherichia coli, read-out: MICs
Protocol: as §1, §2

[5] = test system: E. coli DHA-1 (E. coli TOP10 recombinant strain); test: microbe, parasite or virus in culture; type: cell-based; settings: Escherichia coli, read-out: MICs
Protocol: as §1, §2

[6] = test system: E. coli MIR-17 (E. coli TOP10 recombinant strain); test: microbe, parasite or virus in culture; type: cell-based; settings: Escherichia coli, read-out: MICs
Protocol: as §1, §2

[7] = test system: E. coli Ear-1 (E. coli TOP10 recombinant strain); test: microbe, parasite or virus in culture; type: cell-based; settings: Escherichia coli, read-out: MICs
Protocol: as §1, §2

[8] = test system: E. coli LAT-1 (E. coli TOP10 recombinant strain); test: microbe, parasite or virus in culture; type: cell-based; settings: Escherichia coli, read-out: MICs
Protocol: as §1, §2

[9] = test system: E. coli PDC-382 (E. coli TOP10 recombinant strain); test: microbe, parasite or virus in culture; type: cell-based; settings: Escherichia coli, read-out: MICs
Protocol: as §1, §2

[10] = test system: E. coli SRT-2 (E. coli TOP10 recombinant strain); test: microbe, parasite or virus in culture; type: cell-based; settings: Escherichia coli, read-out: MICs
Protocol: as §1, §2

E. coli TOP10 [11] = test: microbe, parasite or virus in culture; type: cell-based; settings: Escherichia coli
Protocol: as §1, §2

[12] = test system: E. coli PDC-1 (E. coli TOP10 recombinant strain); test: microbe, parasite or virus in culture; type: cell-based; settings: Escherichia coli, read-out: MICs
Protocol: as §1, §2

[13] = test system: E. coli ACT-7 (E. coli TOP10 recombinant strain); test: microbe, parasite or virus in culture; type: cell-based; settings: Escherichia coli, read-out: MICs
Protocol: as §1, §2

[14] = test system: E. coli PDC-5 (E. coli TOP10 recombinant strain); test: microbe, parasite or virus in culture; type: cell-based; settings: Escherichia coli, read-out: MICs
Protocol: as §1, §2

[15] = test system: E. coli FOX-5 (E. coli TOP10 recombinant strain); test: microbe, parasite or virus in culture; type: cell-based; settings: Escherichia coli, read-out: MICs
Protocol: as §1, §2

[16] = test system: E. coli CMY-42 (E. coli TOP10 recombinant strain); test: microbe, parasite or virus in culture; type: cell-based; settings: Escherichia coli, read-out: MICs
Protocol: as §1, §2

[17] = test system: E. coli CMY-2 (E. coli TOP10 recombinant strain); test: microbe, parasite or virus in culture; type: cell-based; settings: Escherichia coli, read-out: MICs
Protocol: as §1, §2

[18] = test system: E. coli ACC-1 (E. coli TOP10 recombinant strain); test: microbe, parasite or virus in culture; type: cell-based; settings: Escherichia coli, read-out: MICs
Protocol: as §1, §2

E. coli ATCC 25922 = test: MIC by broth microdilution, E. coli ATCC 25922; type: cell-based; settings: Escherichia coli
Protocol: as §2

[19] = test system: Escherichia coli NCTC 13353 (CTX-M-15, OXA-1); test: QC susceptibility testing (MIC), E. coli NCTC 13353; type: cell-based; settings: NCTC13353, read-out: Minimal Inhibitory Concentrations
Protocol: as §2
(§3) Table S1. Susc eptibility testing of al l QC strains used in the study.
(§4) Mi n ima l In hibitory Concentrations (µg / ml) a […]

[20] = test system: Klebsiella pneumoniae ATCC 700603 (SHV-18, OXA-2); test: microbe, parasite or virus in culture; type: cell-based; settings: ATCC700603, read-out: Minimal Inhibitory Concentrations
Protocol: as §2, §3, §4

[21] = test system: Pseudomonas aeruginosa ATCC 27853 (inducible AmpC); test: microbe, parasite or virus in culture; type: cell-based; settings: ATCC27853, QC strain P. aeruginosa ATCC 27853, broth microdilution, Table S1, read-out: Minimal Inhibitory Concentrations
Protocol: as §2, §3, §4

E. coli TOP10 [22] = test system: E. coli TOP10; design: method as in PMID 38727224; settings: inhibitor alone, previous study; cited from earlier work
CMY-2 = molecular target: T1, CMY-2 (Klebsiella pneumoniae, UniProt Q48434); test: biochemical; design: species or system Citrobacter spp.
T1 construct: made in house; host or cells: E. coli TOP10, plasmid pUCp24
T1 sequence (Q48434 21-381): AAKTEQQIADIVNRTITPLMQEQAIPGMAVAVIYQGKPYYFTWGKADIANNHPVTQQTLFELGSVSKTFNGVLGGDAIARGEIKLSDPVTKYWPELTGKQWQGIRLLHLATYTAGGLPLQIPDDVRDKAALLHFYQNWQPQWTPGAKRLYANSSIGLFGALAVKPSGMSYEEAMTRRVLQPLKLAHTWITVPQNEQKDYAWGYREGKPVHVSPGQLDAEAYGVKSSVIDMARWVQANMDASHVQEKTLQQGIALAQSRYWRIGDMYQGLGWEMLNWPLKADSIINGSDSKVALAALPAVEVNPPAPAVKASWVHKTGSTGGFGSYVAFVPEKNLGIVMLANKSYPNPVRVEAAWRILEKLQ

MIR-17 = test: IC50 of β-lactamase inhibitors, crude extract, MIR-17; type: biochemical, Enterobacter roggenkampii; settings: crude extract of E. coli TOP10 recombinant strain, mean of triplicate
SRT-1 = SRT-1 (Serratia marcescens, UniProt P18539); test: IC50 of β-lactamase inhibitors, crude extract, SRT-1; type: biochemical; settings: crude extract of E. coli TOP10 recombinant strain, mean of triplicate
SRT-1, sequence (P18539 22-376): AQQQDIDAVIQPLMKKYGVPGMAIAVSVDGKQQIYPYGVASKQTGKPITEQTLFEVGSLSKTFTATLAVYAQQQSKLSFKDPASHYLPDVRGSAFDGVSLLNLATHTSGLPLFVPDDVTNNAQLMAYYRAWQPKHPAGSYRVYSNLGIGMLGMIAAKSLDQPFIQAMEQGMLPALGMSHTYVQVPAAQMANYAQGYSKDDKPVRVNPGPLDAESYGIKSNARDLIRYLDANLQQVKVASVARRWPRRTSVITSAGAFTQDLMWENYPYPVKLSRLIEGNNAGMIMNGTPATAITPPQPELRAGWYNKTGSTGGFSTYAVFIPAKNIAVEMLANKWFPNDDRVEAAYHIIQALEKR

CMY-42 = molecular target: T2, CMY-42 (Klebsiella pneumoniae, UniProt Q48434, V231S); test: biochemical; design: species or system Citrobacter spp.
T2 construct: made in house; host or cells: E. coli TOP10, plasmid pUCp24
T2 sequence (Q48434 21-381 V231S): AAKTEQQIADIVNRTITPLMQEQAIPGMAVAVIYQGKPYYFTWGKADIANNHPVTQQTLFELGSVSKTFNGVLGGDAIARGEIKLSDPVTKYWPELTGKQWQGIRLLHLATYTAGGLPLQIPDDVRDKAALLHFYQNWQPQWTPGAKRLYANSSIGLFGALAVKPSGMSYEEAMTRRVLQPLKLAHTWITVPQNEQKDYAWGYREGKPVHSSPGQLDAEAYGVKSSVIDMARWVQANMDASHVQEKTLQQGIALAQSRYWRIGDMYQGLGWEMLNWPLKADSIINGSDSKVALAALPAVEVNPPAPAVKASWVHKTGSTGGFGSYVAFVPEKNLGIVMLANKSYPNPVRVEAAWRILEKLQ

PDC-1 = molecular target: T3, PDC-1 (Pseudomonas aeruginosa, UniProt P24735); test: biochemical; design: species or system P. aeruginosa
T3 construct: made in house; host or cells: E. coli TOP10, plasmid pUCp24
T3 sequence (P24735 27-397): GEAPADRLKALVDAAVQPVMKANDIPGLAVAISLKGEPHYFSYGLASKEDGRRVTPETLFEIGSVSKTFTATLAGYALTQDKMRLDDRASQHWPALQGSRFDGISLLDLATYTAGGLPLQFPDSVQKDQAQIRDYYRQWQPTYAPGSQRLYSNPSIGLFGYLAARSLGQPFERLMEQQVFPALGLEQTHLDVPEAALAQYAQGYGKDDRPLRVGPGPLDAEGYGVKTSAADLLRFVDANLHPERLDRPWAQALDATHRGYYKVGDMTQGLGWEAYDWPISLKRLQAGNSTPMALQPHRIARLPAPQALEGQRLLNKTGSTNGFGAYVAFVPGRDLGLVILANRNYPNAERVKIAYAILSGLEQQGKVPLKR

ACT-7 = ACT-7 (Enterobacter asburiae, UniProt B6V6L3); test: biochemical
ACT-7, sequence (B6V6L3 entry or part of it): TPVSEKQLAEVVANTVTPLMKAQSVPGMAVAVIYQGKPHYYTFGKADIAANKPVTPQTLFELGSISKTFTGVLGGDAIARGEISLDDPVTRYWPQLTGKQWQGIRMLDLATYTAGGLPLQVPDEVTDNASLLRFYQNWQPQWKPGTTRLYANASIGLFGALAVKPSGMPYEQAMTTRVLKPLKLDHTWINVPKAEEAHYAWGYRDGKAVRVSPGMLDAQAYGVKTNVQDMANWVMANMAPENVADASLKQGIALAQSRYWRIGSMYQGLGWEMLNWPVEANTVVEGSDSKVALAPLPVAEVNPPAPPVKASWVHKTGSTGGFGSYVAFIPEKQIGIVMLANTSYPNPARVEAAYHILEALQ

ADC-50 = ADC-50 (Acinetobacter baumannii, UniProt Q6DRA1); test: IC50 of β-lactamase inhibitors, crude extract, ADC-50; type: biochemical, A. baumannii; settings: ADC-50, crude extract of E. coli TOP10 recombinant strain, mean of triplicate
ACT-17 = ACT-17 (Enterobacter asburiae, UniProt P05364); type: biochemical; settings: crude extract of E. coli TOP10 recombinant strain, mean of triplicate
ACT-17, sequence (P05364 21-381): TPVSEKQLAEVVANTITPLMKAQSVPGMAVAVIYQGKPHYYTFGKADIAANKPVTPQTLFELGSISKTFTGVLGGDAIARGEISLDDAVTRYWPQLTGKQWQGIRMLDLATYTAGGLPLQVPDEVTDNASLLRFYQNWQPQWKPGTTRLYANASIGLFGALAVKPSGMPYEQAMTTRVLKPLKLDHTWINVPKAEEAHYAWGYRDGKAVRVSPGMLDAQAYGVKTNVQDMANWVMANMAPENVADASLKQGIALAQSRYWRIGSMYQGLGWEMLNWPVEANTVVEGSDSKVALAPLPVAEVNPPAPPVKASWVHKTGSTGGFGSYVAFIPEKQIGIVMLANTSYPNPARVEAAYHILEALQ

YRC-1 = YRC-1 (Yersinia ruckeri, UniProt Q20I87); test: IC50 of β-lactamase inhibitors, crude extract, YRC-1; type: biochemical
YRC-1, sequence (Q20I87 entry or part of it): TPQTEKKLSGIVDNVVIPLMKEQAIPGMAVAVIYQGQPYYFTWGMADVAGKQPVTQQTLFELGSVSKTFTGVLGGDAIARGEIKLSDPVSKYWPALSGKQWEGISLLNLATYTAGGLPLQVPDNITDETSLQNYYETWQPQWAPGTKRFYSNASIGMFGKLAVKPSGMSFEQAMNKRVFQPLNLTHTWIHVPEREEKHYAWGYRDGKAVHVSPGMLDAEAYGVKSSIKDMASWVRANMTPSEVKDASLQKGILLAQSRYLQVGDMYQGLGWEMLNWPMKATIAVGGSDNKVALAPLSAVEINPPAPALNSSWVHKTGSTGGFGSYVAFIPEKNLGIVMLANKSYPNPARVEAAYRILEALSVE

FOX-5 = FOX-5 (Aeromonas allosaccharophila, UniProt Q9F4K3); test: IC50 of β-lactamase inhibitors, crude extract, FOX-5; type: biochemical
FOX-5, sequence (Q9F4K3 entry or part of it): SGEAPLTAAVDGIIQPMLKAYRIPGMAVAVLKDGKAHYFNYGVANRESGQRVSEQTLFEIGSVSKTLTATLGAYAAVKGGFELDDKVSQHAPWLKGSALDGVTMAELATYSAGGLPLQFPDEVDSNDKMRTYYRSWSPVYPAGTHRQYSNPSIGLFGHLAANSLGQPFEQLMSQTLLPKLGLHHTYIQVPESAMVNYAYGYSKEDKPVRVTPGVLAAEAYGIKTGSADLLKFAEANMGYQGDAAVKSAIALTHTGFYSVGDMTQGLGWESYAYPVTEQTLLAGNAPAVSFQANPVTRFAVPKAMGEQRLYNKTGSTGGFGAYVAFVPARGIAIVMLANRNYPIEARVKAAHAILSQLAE

DHA-1 = DHA-1 (Morganella morganii, UniProt P94958); test: IC50 of β-lactamase inhibitors, crude extract, DHA-1; type: biochemical
ACC-1 = ACC-1 (Hafnia alvei, UniProt Q9XB24); test: IC50 of β-lactamase inhibitors, crude extract, ACC-1; type: biochemical
ACC-1, sequence (Q9XB24 entry or part of it): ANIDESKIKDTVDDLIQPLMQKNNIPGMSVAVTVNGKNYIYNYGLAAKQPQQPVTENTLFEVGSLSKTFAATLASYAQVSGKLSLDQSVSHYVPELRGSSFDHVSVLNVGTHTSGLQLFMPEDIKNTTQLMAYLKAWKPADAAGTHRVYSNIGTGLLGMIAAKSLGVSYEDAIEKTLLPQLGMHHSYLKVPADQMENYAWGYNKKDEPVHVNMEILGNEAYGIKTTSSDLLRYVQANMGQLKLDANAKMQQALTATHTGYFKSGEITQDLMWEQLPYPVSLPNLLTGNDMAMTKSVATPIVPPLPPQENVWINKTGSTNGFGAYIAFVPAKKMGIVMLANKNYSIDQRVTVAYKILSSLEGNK

LAT-1 = LAT-1 (Citrobacter portucalensis, UniProt Q48443); test: biochemical
LAT-1, sequence (Q48443 entry or part of it): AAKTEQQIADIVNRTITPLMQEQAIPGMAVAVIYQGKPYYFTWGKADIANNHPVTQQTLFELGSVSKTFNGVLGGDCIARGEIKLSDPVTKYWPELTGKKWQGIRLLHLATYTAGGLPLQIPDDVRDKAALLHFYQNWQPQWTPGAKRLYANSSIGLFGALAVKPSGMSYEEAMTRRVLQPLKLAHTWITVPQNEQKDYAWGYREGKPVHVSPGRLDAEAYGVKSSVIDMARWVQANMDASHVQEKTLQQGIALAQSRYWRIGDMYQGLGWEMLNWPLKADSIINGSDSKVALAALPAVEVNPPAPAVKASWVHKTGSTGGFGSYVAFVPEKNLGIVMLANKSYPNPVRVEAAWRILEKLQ

PDC-5 = molecular target: T4, PDC-5 (Pseudomonas aeruginosa, UniProt P24735, R79Q/T105A); test: biochemical; design: species or system P. aeruginosa
T4 construct: made in house; host or cells: E. coli TOP10, plasmid pUCp24
T4 sequence (P24735 27-397 R79Q/T105A): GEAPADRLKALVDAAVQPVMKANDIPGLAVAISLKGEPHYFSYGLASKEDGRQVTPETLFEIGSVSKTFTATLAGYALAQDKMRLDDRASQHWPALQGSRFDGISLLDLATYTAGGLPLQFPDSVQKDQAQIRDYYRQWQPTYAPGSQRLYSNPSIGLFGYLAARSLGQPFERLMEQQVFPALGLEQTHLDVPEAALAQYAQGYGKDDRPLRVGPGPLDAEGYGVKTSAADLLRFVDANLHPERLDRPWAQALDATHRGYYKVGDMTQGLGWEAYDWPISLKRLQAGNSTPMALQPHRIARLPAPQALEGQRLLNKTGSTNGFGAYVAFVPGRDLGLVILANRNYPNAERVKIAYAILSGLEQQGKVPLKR

MOX-2 = MOX-2 (Aeromonas caviae, UniProt Q9L3G2); test: IC50 of β-lactamase inhibitors, crude extract, MOX-2; type: biochemical
MOX-2, sequence (Q9L3G2 entry or part of it): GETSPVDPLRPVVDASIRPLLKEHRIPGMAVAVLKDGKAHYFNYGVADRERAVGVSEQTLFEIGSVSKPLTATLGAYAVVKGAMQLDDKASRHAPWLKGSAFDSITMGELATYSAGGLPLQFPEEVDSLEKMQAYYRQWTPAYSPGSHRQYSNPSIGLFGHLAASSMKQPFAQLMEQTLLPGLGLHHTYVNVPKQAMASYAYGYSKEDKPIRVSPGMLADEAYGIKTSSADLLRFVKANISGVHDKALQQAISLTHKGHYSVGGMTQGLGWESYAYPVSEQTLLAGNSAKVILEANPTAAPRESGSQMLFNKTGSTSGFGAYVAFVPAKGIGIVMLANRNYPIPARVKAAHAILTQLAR

PDC-382 = PDC-382 (Pseudomonas aeruginosa, UniProt P24735, T96I); test: biochemical; design: species or system P. aeruginosa
PDC-382, sequence (P24735 27-397 T96I): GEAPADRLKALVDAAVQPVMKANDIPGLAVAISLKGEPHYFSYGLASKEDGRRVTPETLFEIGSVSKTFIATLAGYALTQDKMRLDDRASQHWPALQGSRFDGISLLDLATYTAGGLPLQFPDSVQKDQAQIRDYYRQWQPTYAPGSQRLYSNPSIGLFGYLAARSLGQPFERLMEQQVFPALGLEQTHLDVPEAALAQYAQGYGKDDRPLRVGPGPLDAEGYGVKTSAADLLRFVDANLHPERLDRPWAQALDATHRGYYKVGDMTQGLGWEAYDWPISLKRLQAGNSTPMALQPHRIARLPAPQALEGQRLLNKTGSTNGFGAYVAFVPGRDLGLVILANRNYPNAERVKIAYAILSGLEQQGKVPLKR

Ear-1 = Ear-1 (Klebsiella aerogenes, UniProt A0A0H3FRQ3); test: IC50 of β-lactamase inhibitors, crude extract, Ear-1; type: biochemical
[23] = ATCC25922, E. coli ATCC 25922, β-lactam alone or with inhibitor at fixed conc.: CLA 2 µg/mL, TZB, AVI, REL, NAC, ZID, DUR, TAN 4 µg/mL, VAB, XER, EMT 8 µg/mL, read-out: MICs

Structure (SMILES): CC1(C)S[C@@H]2[C@H](NC(=O)[C@H](N)c3ccc(O)cc3)C(=O)N2[C@H]1C(=O)O [Amoxicillin, amoxicillin]
- MIC [1]: 512 µg/mL
- MIC [2]: 8 µg/mL
- MIC [3]: 512 µg/mL
- MIC [4]: 512 µg/mL
- MIC [5]: 1020 µg/mL
- MIC [6]: 128 µg/mL
- MIC [7]: > 1020 µg/mL
- MIC [8]: 512 µg/mL
- MIC [9]: 16 µg/mL
- MIC [10]: 128 µg/mL
- MIC (E. coli TOP10 [11]; TOP10, read-out: MICs): 1 µg/mL
- MIC [12]: 16 µg/mL
- MIC [13]: 1020 µg/mL
- MIC [14]: 16 µg/mL
- MIC [15]: 8 µg/mL
- MIC [16]: 1020 µg/mL
- MIC [17]: > 1020 µg/mL
- MIC [18]: 32 µg/mL
- MIC (E. coli ATCC 25922; [23]): 4 µg/mL

Structure (SMILES): CC(C)(O/N=C(\C(=O)N[C@@H]1C(=O)N2C(C(=O)[O-])=C(C[n+]3ccccc3)CS[C@H]12)c1csc(N)n1)C(=O)O [Ceftazidime, ceftazidime]
- MIC [1]: 64 µg/mL
- MIC [2]: 0.5 µg/mL
- MIC [3]: 8 µg/mL
- MIC [4]: 32 µg/mL
- MIC [5]: 128 µg/mL
- MIC [6]: 4 µg/mL
- MIC [7]: > 256 µg/mL
- MIC [8]: 64 µg/mL
- MIC [9]: 2 µg/mL
- MIC [10]: 4 µg/mL
- MIC (E. coli TOP10 [11]; E. coli TOP10, broth microdilution, β-lactam alone or with inhibitor at fixed conc.: CLA 2 µg/mL, TZB, AVI, REL, NAC, ZID, DUR, TAN 4 µg/mL, VAB, XER, EMT 8 µg/mL, read-out: MICs): 0.25 µg/mL
- MIC [12]: 0.5 µg/mL
- MIC [13]: 64 µg/mL
- MIC [14]: 1 µg/mL
- MIC [15]: 8 µg/mL
- MIC [16]: > 256 µg/mL
- MIC [17]: > 256 µg/mL
- MIC [18]: 32 µg/mL
- MIC [19]: 256 µg/mL
- MIC [20]: 64 µg/mL
- MIC [21]: 2 µg/mL
- MIC (E. coli ATCC 25922; [23]): 0.06 µg/mL
- MIC (E. coli ATCC 25922; ATCC25922, QC strain E. coli ATCC 25922, Table S1, read-out: Minimal Inhibitory Concentrations): 0.06 µg/mL

Structure (SMILES): O=C(O)c1c(F)ccc2c1OB(O)[C@@H]1C[C@H]21 [Xeruborbactam, xeruborbactam]
- MIC value of XER alone (E. coli TOP10 [22]): above 16 µg/mL
- pIC50 (CMY-2): 6.55
- pIC50 (MIR-17): 6.51
- pIC50 (SRT-1): 6.66
- pIC50 (CMY-42): 6.37
- pIC50 (PDC-1): 6.17
- pIC50 (ACT-7): 6.54
- pIC50 (ADC-50): 5.27
- pIC50 (ADC-50; listed as XER): 5.30
- pIC50 (ACT-17): 6.70
- pIC50 (YRC-1): 6.02
- pIC50 (FOX-5): 6.64
- pIC50 (DHA-1): 6.80
- pIC50 (ACC-1): 7.05
- pIC50 (LAT-1): 6.47
- pIC50 (PDC-5): 6.18
- pIC50 (MOX-2): 6.59
- pIC50 (PDC-382): 6.49
- pIC50 (Ear-1): 6.66
